# Measurements published in ChEMBL document CHEMBL4340507, “Identification of an indol-based multi-target kinase inhibitor through phenotype screening and target fishing using inverse virtual screening approach” (Eur J Med Chem, 2019).
# Activity calls are given as the source filed them. No cut-off for these calls is given here.
# How the values were obtained:
# Jurkat = assay: Antiproliferative activity against human Jurkat T cells assessed as decrease in cell viability measured after 24 to 72 hrs by MTT assay; assay type: functional, cell-based
# HeLa [1] = assay: Antiproliferative activity against human HeLa cells assessed as decrease in cell viability measured after 72 hrs by MTT assay; assay type: functional, cell-based
# PC-3 = assay: Antiproliferative activity against human PC3 cells assessed as decrease in cell viability measured after 72 hrs by MTT assay; assay type: functional, cell-based; conditions: PC-3, 72 h
# MCF7 = assay: Antiproliferative activity against human MCF7 cells assessed as decrease in cell viability measured after 72 hrs by MTT assay; assay type: functional, cell-based; conditions: MCF7, 72 h
# IEC-6 [2] = assay: Cytotoxicity against rat IEC-6 cells assessed as reduction in cell viability measured after 24 to 72 hrs by MTT assay; assay type: cell-based; conditions: for Activity: rat, iec-6
# IEC-6 [3] = assay: Induction of apoptosis in rat IEC-6 cells assessed as increase in hypodiploid nuclei at 0.1 to 0.6 uM measured after 24 hrs by propidium iodide staining-based FACS analysis; assay type: cell-based; conditions: iec-6, 24 h
# IEC-6 [4] = assay: Cytotoxicity against rat IEC-6 cells assessed as reduction in cell viability at 0.1 to 0.6 uM measured after 24 to 72 hrs by MTT assay; assay type: cell-based; conditions: iec-6, 0.6 µM
# [5] = Inhibition of ERK phosphorylation in rat IEC-6 cells at 0.6 uM after 24 hrs by FACS analysis; assay type: cell-based; conditions: iec-6, 24 h
# IEC-6 [6] = assay: Induction of apoptosis in rat IEC-6 cells assessed as increase in caspase 3 level at 0.1 to 0.6 uM after 24 hrs by FACS analysis; assay type: cell-based; conditions: iec-6, 24 h
# HeLa [7] = assay: Induction of ROS generation in human HeLa cells at 0.1 to 0.6 uM measured after 24 hrs by H2DC-DA probe-based FACS analysis; assay type: functional, cell-based
# IEC-6 [8] = assay: Cell cycle arrest in rat IEC-6 cells assessed as increase in accumulation at S phase at 0.1 to 0.6 uM after 24 hrs by propidium iodide staining based FACS analysis; assay type: ADME; conditions: iec-6, 24 h
# IEC-6 [9] = assay: Cell cycle arrest in rat IEC-6 cells assessed as accumulation at G0/G1-phase at 0.1 to 0.6 uM after 24 hrs by propidium iodide staining-based FACS analysis; assay type: ADME; conditions: iec-6, 24 h
# HeLa [10] = assay: Inhibition of ERK phosphorylation in human HeLa cells at 0.6 uM after 24 hrs by FACS analysis; assay type: cell-based
# HeLa [11] = assay: Induction of apoptosis in human HeLa cells assessed as effect on PARP level at 0.1 to 0.6 uM after 24 hrs by FACS analysis; assay type: functional, cell-based
# IEC-6 [12] = assay: Induction of apoptosis in rat IEC-6 cells assessed as effect on PARP level at 0.1 to 0.6 uM after 24 hrs by FACS analysis; assay type: cell-based; conditions: iec-6, 24 h
# IEC-6 [13] = assay: Down regulation of ERK expression in rat IEC-6 cells at 0.6 uM after 24 hrs by FACS analysis; assay type: ADME, cell-based; conditions: iec-6, 24 h
# IEC-6 [14] = assay: Induction of ROS generation in rat IEC-6 cells at 0.1 to 0.6 uM measured after 24 hrs by H2DCF-DA staining-based FACS analysis; assay type: cell-based; conditions: iec-6, 24 h
# HeLa [15] = assay: Down regulation of ERK expression in human HeLa cells at 0.1 to 0.6 uM after 24 hrs by FACS analysis; assay type: functional, cell-based
# HeLa [16] = assay: Cell cycle arrest in human HeLa cells assessed as accumulation at G0/G1-phase at 0.1 to 0.6 uM after 24 hrs by propidium iodide staining-based FACS analysis; assay type: functional
# HeLa [17] = assay: Induction of apoptosis in human HeLa cells assessed as increase in hypodiploid nuclei at 0.3 to 0.6 uM measured after 24 hrs by propidium iodide staining-based FACS analysis; assay type: functional, cell-based
# IEC-6 [18] = assay: Cell cycle arrest in rat IEC-6 cells assessed as decrease in accumulation at G2-phase at 0.1 to 0.6 uM after 24 hrs by propidium iodide staining-based FACS analysis; assay type: ADME; conditions: iec-6, 24 h
# HeLa [19] = assay: Cell cycle arrest in human HeLa cells assessed as decrease in accumulation at G2-phase at 0.1 to 0.6 uM after 24 hrs by propidium iodide staining-based FACS analysis; assay type: functional
# HeLa [20] = assay: Induction of apoptosis in human HeLa cells assessed as increase in caspase 3 level at 0.1 to 0.6 uM after 24 hrs by FACS analysis; assay type: functional, cell-based
smiles,measurement,setting,value
CC(=O)N(CCc1ccc(-c2ccccc2)cc1)Cc1cn(C)c2ccc(C(=O)Nc3ccc(C)cc3)cc12,IC50,Jurkat,> 100 µM
same,IC50,HeLa [1],> 100 µM
same,IC50,PC-3,> 100 µM
same,IC50,MCF7,12.8 µM
CCCn1cc(CNCCc2ccc(-c3ccccc3)cc2)c2cc(CNc3ccc(F)cc3)ccc21,IC50,Jurkat,6.21 µM
same,IC50,HeLa [1],7.23 µM
same,IC50,PC-3,5.41 µM
same,IC50,MCF7,1.26 µM
same,Activity,IEC-6 [2],Toxic
CN(CCc1ccc(Oc2ccccc2)cc1)Cc1cn(C)c2ccc(C(=O)Nc3ccc(F)cc3)cc12,IC50,Jurkat,51.8 µM
same,IC50,HeLa [1],16.6 µM
same,IC50,PC-3,30.8 µM
same,IC50,MCF7,20.7 µM
N#Cc1c(Oc2ccc(F)c(NC(=O)Cc3cccc(C(F)(F)F)c3)c2)ccc2nc(NC(=O)C3CC3)sc12,Activity,IEC-6 [3],Toxic
same,Activity,IEC-6 [4],Toxic
same,inhibition (INH),[5],Active
same,Activity,IEC-6 [6],Toxic
same,Activity,HeLa [7],Active
same,Activity,IEC-6 [8],Toxic
same,Activity,IEC-6 [9],Toxic
same,inhibition,HeLa [10],Active
same,Activity,HeLa [11],inactive
same,Activity,IEC-6 [12],Non-Toxic
same,Activity,IEC-6 [13],Toxic
same,Activity,IEC-6 [14],Toxic
same,Activity,HeLa [15],Active
same,Activity,HeLa [16],Active
same,Activity,HeLa [17],Active
same,Activity,IEC-6 [18],Toxic
same,Activity,HeLa [19],Active
same,Activity,HeLa [20],Active
CN1CCN(Cc2cn(C)c3ccc(C(=O)Nc4ccc(F)cc4)cc23)CC1,IC50,Jurkat,> 100 µM
same,IC50,HeLa [1],24.8 µM
same,IC50,PC-3,89.2 µM
same,IC50,MCF7,24.7 µM
CN(CCc1ccc(-c2ccccc2)cc1)Cc1cn(C)c2ccc(CNc3ccc(F)cc3)cc12,IC50,Jurkat,26.5 µM
same,IC50,HeLa [1],2.92 µM
same,IC50,PC-3,72.7 µM
same,IC50,MCF7,2.15 µM
CN(Cc1cccc2ccccc12)Cc1cn(C)c2ccc(CNc3ccc(F)cc3)cc12,IC50,Jurkat,3.68 µM
same,IC50,HeLa [1],0.95 µM
same,IC50,PC-3,9.41 µM
same,IC50,MCF7,4.55 µM
same,IC50,"IEC-6 [2]; Rattus norvegicus, IEC-6",0.59 µM
CN(Cc1ccc(Oc2ccccc2)cc1)Cc1cn(C)c2ccc(CNc3ccc(F)cc3)cc12,IC50,Jurkat,35.6 µM
same,IC50,HeLa [1],9.98 µM
same,IC50,PC-3,56 µM
same,IC50,MCF7,37 µM
CN(Cc1ccc(-c2ccccc2)cc1)Cc1cn(C)c2ccc(CNc3ccc(F)cc3)cc12,IC50,Jurkat,34.4 µM
same,IC50,HeLa [1],8.18 µM
same,IC50,PC-3,84.3 µM
same,IC50,MCF7,20.2 µM
CN(Cc1ccc(-c2ccccc2)cc1)Cc1cn(C)c2ccc(C(=O)Nc3ccc(F)cc3)cc12,IC50,Jurkat,> 100 µM
same,IC50,HeLa [1],23.6 µM
same,IC50,PC-3,> 100 µM
same,IC50,MCF7,54.4 µM
CN(CCc1ccccc1)Cc1cn(C)c2ccc(C(=O)Nc3ccc(F)cc3)cc12,IC50,Jurkat,> 100 µM
same,IC50,HeLa [1],19.6 µM
same,IC50,PC-3,47.7 µM
same,IC50,MCF7,14.7 µM
Cc1ccc(NC(=O)c2ccc3c(c2)c(CN(C)CCc2ccc(-c4ccccc4)cc2)cn3C)cc1,IC50,Jurkat,68 µM
same,IC50,HeLa [1],69.8 µM
same,IC50,PC-3,50.3 µM
same,IC50,MCF7,3.04 µM
same,Activity,IEC-6 [2],Non-Toxic
CCNC(=O)c1ccc2c(c1)c(CN(C)CCc1ccc(-c3ccccc3)cc1)cn2C,IC50,Jurkat,79.2 µM
same,IC50,HeLa [1],> 100 µM
same,IC50,PC-3,87.5 µM
same,IC50,MCF7,12.2 µM
COc1cccc2c1C(=O)c1c(O)c3c(c(O)c1C2=O)C[C@@](O)(C(=O)CO)C[C@@H]3O[C@H]1C[C@H](N)[C@H](O)[C@H](C)O1 [DOXORUBICIN],IC50,Jurkat,2.35 µM
same,IC50,HeLa [1],1.44 µM
same,IC50,PC-3,1.07 µM
same,IC50,MCF7,14 µM
CN(CCc1ccc(-c2ccccc2)cc1)Cc1cn(C)c2ccc(C(=O)N3CCCCC3)cc12,IC50,Jurkat,60.4 µM
same,IC50,HeLa [1],73.2 µM
same,IC50,PC-3,52.2 µM
same,IC50,MCF7,3.04 µM
same,Activity,IEC-6 [2],Non-Toxic
COc1cc(CN(C)Cc2cn(C)c3ccc(C(=O)Nc4ccc(F)cc4)cc23)cc(OC)c1OC,IC50,Jurkat,42.1 µM
same,IC50,HeLa [1],4.21 µM
same,IC50,PC-3,6.45 µM
same,IC50,MCF7,13.2 µM
Cn1cc(CNCCc2ccc(-c3ccccc3)cc2)c2cc(C(=O)Nc3ccc(F)cc3)ccc21,IC50,Jurkat,83.8 µM
same,IC50,HeLa [1],24.3 µM
same,IC50,PC-3,45.3 µM
same,IC50,MCF7,7.07 µM
Cn1cc(CNCCc2ccc(-c3ccccc3)cc2)c2cc(CNc3ccc(F)cc3)ccc21,IC50,Jurkat,72 µM
same,IC50,HeLa [1],14.7 µM
same,IC50,PC-3,2.08 µM
same,IC50,MCF7,76.4 µM
Cn1cc(CN2CCN(Cc3ccc(-c4ccccc4)cc3)CC2)c2cc(C(=O)Nc3ccc(F)cc3)ccc21,IC50,Jurkat,> 100 µM
same,IC50,HeLa [1],39.7 µM
same,IC50,PC-3,37.5 µM
same,IC50,MCF7,63.9 µM
CC(=O)N(CCc1ccc(-c2ccccc2)cc1)Cc1cn(C)c2ccc(C(=O)Nc3ccc(F)cc3)cc12,IC50,Jurkat,> 100 µM
same,IC50,HeLa [1],> 100 µM
same,IC50,PC-3,> 100 µM
same,IC50,MCF7,82.6 µM
O=C(Nc1ccc(F)cc1)c1ccc2c(ccn2Cc2ccc(-c3ccccc3)cc2)c1,IC50,Jurkat,> 100 µM
same,IC50,HeLa [1],67.6 µM
same,IC50,PC-3,8.36 µM
same,IC50,MCF7,10.8 µM
